SMILES strings stand for the structures.

The subject of this test is Human osteosarcoma U20S cells. Kind of test: Assay to measure lysosome and autolysosome formation (acidic vesicle formation, LysoView/LysoTracker staining). Format: cell-based. The note with it: Homo sapiens; U2OS cells, concentration of 0.8 μM; read-out: Activity (percentage increase in acidic vesicle formation over the DMSO-treated control), Table 2. As to the method:
Lysosomes play a fundamental role in the autophagic pathway by fusing with autophagosomes and creating ‘autolysosomes’ in order to digest their contents. Stimulation of lysosome and autolysosome formation by a compound is indicative of a stimulation of autophagy. The ability of compounds to stimulate lysosome and autolysosome formation, and thus autophagy, in live cells was assessed via fluorescent microscopy using various fluorescent stains for labelling and tracking acidic organelles (including lysosomes and autolysosomes) such as: LysoView™ 650 (70059 and 70059-T, Biotium), LysoViewTM633 (70058 and 70058-T, Biotium) and LysoTracker™ Deep Red (L12492, ThermoFisher Scientific). The cellular phenotype was quantitatively assessed for the induction of acidic vesicle formation and compared to a non-treated control, thus providing a measure of the ability of the compound under investigation to stimulate autophagy.
Representative procedure using LysoView™633 dye or LysoTracker™ Deep Red dye: Human osteosarcoma U20S cells (40,000 cells/well) were seeded in a 24 well glass bottom plate (Sensoplate, Greiner Bio-One) and were incubated overnight in a humidified atmosphere at 37° C. and 5% CO2. Cells were grown in DMEM (Gibco) supplemented with 10% Fetal Bovine Serum (FBS) and 100 units/ml penicillin and 100 μg/ml streptomycin (Invitrogen). After the attachment period, cells were treated with different compounds of interest (at various concentrations in DMSO) or DMSO (non-treated control) in cell culture medium and were incubated for 24 hours. Compound-containing medium was removed and cells were incubated with pre-warmed cell culture medium containing 1× LysoView™ 633 (70058 and 70058-T, Biotium) or 50 nM LysoTracker™ Deep Red (L12492, ThermoFisher Scientific) for 45 minutes at 37° C. Finally, cell nuclei were stained for 10 minutes using Hoechst 33342 (1 μg/mL) and then the medium was replaced with fresh medium. The 24 well plate was then fitted into a heated stage on the microscope and cells maintained at 37° C. Images were captured using appropriate filter set for Cy5 and DAPI detection with the EVOS M7000 Microscope (ThermoFisher Scientific). The cellular phenotype was visually assessed for the induction of acidic vesicle formation relative to the non-treated control; multiple images were acquired and analyzed using ImageJ or Cell Profiler.

As to `CCCN(C(=O)c1csc(-c2cnn(-c3ccc(F)cc3)c2)n1)[C@H]1CCNC1` [Compound 58, 2-[1-(4-fluorophenyl)-1H-pyrazol-4-yl]-N-propyl-N-[(3S)-pyrrolidin-3-yl]-1,3-thiazole-4-carboxamide], the activation at 0.8 µM was 10 to 30%.
To `CCCN(C(=O)c1cc(-c2cnn(-c3ccccc3)c2)cs1)[C@H]1CCNC1` [Compound 59, 4-(1-phenyl-1H-pyrazol-4-yl)-N-propyl-N-[(3S)-pyrrolidin-3-yl]thiophene-2-carboxamide] belongs 10 to 30%; to `CCCN(C(=O)c1csc(-c2cnn(-c3ccc(C)cc3)c2)n1)[C@@H]1CCNC1` [Compound 65, 2-[1-(4-methylphenyl)-1H-pyrazol-4-yl]-N-propyl-N-[(3R)-pyrrolidin-3-yl]-1,3-thiazole-4-carboxamide], 30 to 50%.
Consider `CC(C)N(C(=O)c1csc(-c2cnn(-c3ccccc3Cl)c2)n1)C1CCNCC1` [Compound 66, 2-[1-(2-chlorophenyl)-1H-pyrazol-4-yl]-N-(piperidin-4-yl)-N-(propan-2-yl)-1,3-thiazole-4-carboxamide], for which the activation at 0.8 µM was 10 to 30%.
Regarding `CCCN(C(=O)c1csc(-c2ccc(-c3ccccc3)s2)n1)[C@H]1CCNC1` [Compound 69, 2-(5-phenylthiophen-2-yl)-N-propyl-N-[(3S)-pyrrolidin-3-yl]-1,3-thiazole-4-carboxamide], the activation at 0.8 µM was 30 to 50%.
For `CCCN(C(=O)c1csc(-c2ccc(-c3ccccc3)s2)n1)[C@@H]1CCNC1` [Compound 70, 2-(5-phenylthiophen-2-yl)-N-propyl-N-[(3R)-pyrrolidin-3-yl]-1,3-thiazole-4-carboxamide], the activation at 0.8 µM was 30 to 50%.
The result for `NC[C@H]1CCCN1C(=O)c1csc(-c2cnn(-c3ccc(C(F)(F)F)cc3)c2)n1` [Compound 76, 1-[(2R)-1-(2-{1-[4-(trifluoromethyl)phenyl]-1H-pyrazol-4-yl}-1,3-thiazole-4-carbonyl)pyrrolidin-2-yl]methanamine] reads 10 to 30%; that for `CCCN(C(=O)c1csc(-c2cnn(-c3ccccc3C(F)(F)F)c2)n1)[C@H]1CCNC1` [Compound 82, N-propyl-N-[(3S)-pyrrolidin-3-yl]-2-{1-[2-(trifluoromethyl)phenyl]-1H-pyrazol-4-yl}-1,3-thiazole-4-carboxamide], 30 to 50%; that for `CCCN(C(=O)c1csc(-c2cnn(-c3ccccc3C(F)(F)F)c2)n1)[C@@H]1CCNC1` [Compound 83, N-propyl-N-[(3R)-pyrrolidin-3-yl]-2-{1-[2-(trifluoromethyl)phenyl]-1H-pyrazol-4-yl}-1,3-thiazole-4-carboxamide], 30 to 50%.
To `Cc1ccccc1-n1cc(-c2nc(C(=O)N(C(C)C)C3CCNCC3)cs2)cn1` [Compound 84, 2-[1-(2-methylphenyl)-1H-pyrazol-4-yl]-N-(piperidin-4-yl)-N-(propan-2-yl)-1,3-thiazole-4-carboxamide] belongs 10 to 30%.
The result for `Cc1ccccc1-n1cc(-c2nc(C(=O)N3CCC[C@@H]3CN)cs2)cn1` [Compound 86, 1-[(2R)-1-{2-[1-(2-methylphenyl)-1H-pyrazol-4-yl]-1,3-thiazole-4-carbonyl}pyrrolidin-2-yl]methanamine] reads 30 to 50%; that for `CCCN(C(=O)c1csc(-c2cnn(-c3ccccc3C)c2)n1)[C@H]1CCNC1` [Compound 87, 2-[1-(2-methylphenyl)-1H-pyrazol-4-yl]-N-propyl-N-[(3S)-pyrrolidin-3-yl]-1,3-thiazole-4-carboxamide], 10 to 30%.
Take `CCCN(C(=O)c1csc(-c2cnn(-c3ccccc3Cl)c2)n1)[C@H]1CCNC1` [Compound 89, 2-[1-(2-chlorophenyl)-1H-pyrazol-4-yl]-N-propyl-N-[(3S)-pyrrolidin-3-yl]-1,3-thiazole-4-carboxamide]: the activation at 0.8 µM fell in the range of 10 to 30%.

Source of the values: patent US20250049776A1, “AUTOPHAGY INDUCING COMPOUNDS AND USES THEREOF, IN PARTICULAR FOR A SYSTEMIC TREATMENT OF DISEASES AND CONDITIONS” (Samsara Therapeutics Inc., priority 2021, published 2025).
